According to patent US9980943B2, “Methods of treating muscular dystrophy” (BOARD OF REGENTS OF THE NEVADA SYSTEM OF HIGHER EDUCATION, …, priority 2013, dated 2018):

Tests used:
Assay type in all cases: cell-based, mouse
[1] = tested on: β-galactosidase in CMV-LacZ C2C12 myotubes; test: CMV-LacZ secondary screen in C2C12 myotubes (β-Gal stabilizing assay); conditions: for CMV-LACZ in Myotubes, signal relative to DMSO: C2C12 CMV-LacZ myotubes, fold relative to DMSO; for CMV-LACZ in Myotubes, value relative to DMSO: SU9516 analogs, C2C12 CMV-LacZ, N=2
Procedure, shortened: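 First, C2C12 myoblasts were transfected with a linearized CMV-LACZ vector and clonal lines selected by FDG β-gal assay. Then cells were exposed to compounds at 0.5, 1, 5, 10, 20 and 40 μM in 96-well format, two replicates each, and β-gal measured.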

[2] = tested on: α7 integrin (LacZ reporter in α7+/LacZ myotubes); test: Myotube α7 integrin FDG assay (Burkin assay in myotubes, 96-well); conditions: for Burkin Assay in Myotubes, value relative to DMSO: SU9516 analogs, 96-well, N=3-6
[3] = tested on: β-galactosidase in CMV-LacZ C2C12 myoblasts; test: CMV-LacZ secondary screen in C2C12 myoblasts (β-Gal stabilizing assay); conditions: for CMV-LACZ in Myoblasts (β-galactosidase activity relative to DMSO): CMV-LacZ C2C12 myoblasts; for CMV-LACZ in Myoblasts, value relative to DMSO: SU9516 analogs, C2C12 CMV-LacZ, N=2
Procedure, shortened: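 A secondary screen identifies compounds that stabilize β-gal independently of the native promoter, using CMV-LacZ C2C12 cells. Curves span 0.5–40 μM at six levels, in duplicate.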

[4] = tested on: α7 integrin (LacZ reporter in α7βgal+/− myoblasts); test: Myoblast α7+/LacZ integrin FDG assay (Burkin assay in myoblasts, 96-well); conditions: 96-well; for Burkin Assay in Myoblasts, signal relative to DMSO: α7+/LacZ myoblasts; for Burkin Assay in Myoblasts, value relative to DMSO: SU9516 analogs, N=3-6

CCOn1c(=O)c(-c2ccccc2)[n+]([O-])c2ccccc21 [MLS001197220-01]
CMV-LACZ in Myotubes, signal relative to DMSO ([1]; 0.5 uM): 0.8896
CMV-LACZ in Myotubes, signal relative to DMSO ([1]; 1 uM): 0.9356
CMV-LACZ in Myotubes, signal relative to DMSO ([1]; 5 uM): 0.9682
CMV-LACZ in Myotubes, signal relative to DMSO ([1]; 10 uM): 0.9289
CMV-LACZ in Myotubes, signal relative to DMSO ([1]; 20 uM): 0.9659
CMV-LACZ in Myotubes, signal relative to DMSO ([1]; 40 uM): 1.0271
Burkin Assay in Myotubes, α7 integrin LacZ reporter signal relative to DMSO ([2]; 0.5 uM): 1.327
Burkin Assay in Myotubes, α7 integrin LacZ reporter signal relative to DMSO ([2]; 1 uM): 1.3061
Burkin Assay in Myotubes, α7 integrin LacZ reporter signal relative to DMSO ([2]; 5 uM): 1.254
Burkin Assay in Myotubes, α7 integrin LacZ reporter signal relative to DMSO ([2]; 10 uM): 1.004
Burkin Assay in Myotubes, α7 integrin LacZ reporter signal relative to DMSO ([2]; 20 uM): 0.9
Burkin Assay in Myotubes, α7 integrin LacZ reporter signal relative to DMSO ([2]; 40 uM): 0.831
CMV-LACZ in Myoblasts (β-galactosidase activity relative to DMSO) ([3]; 0.5 uM): 1.2028
CMV-LACZ in Myoblasts (β-galactosidase activity relative to DMSO) ([3]; 1 uM): 1.1569
CMV-LACZ in Myoblasts (β-galactosidase activity relative to DMSO) ([3]; 5 uM): 0.9355
CMV-LACZ in Myoblasts (β-galactosidase activity relative to DMSO) ([3]; 10 uM): 1.1383
CMV-LACZ in Myoblasts (β-galactosidase activity relative to DMSO) ([3]; 20 uM): 0.9567
CMV-LACZ in Myoblasts (β-galactosidase activity relative to DMSO) ([3]; 40 uM): 1.2844
Burkin Assay in Myoblasts, signal relative to DMSO ([4]; 0.5 uM): 1.2811
Burkin Assay in Myoblasts, signal relative to DMSO ([4]; 1 uM): 1.286
Burkin Assay in Myoblasts, signal relative to DMSO ([4]; 5 uM): 1.843
Burkin Assay in Myoblasts, signal relative to DMSO ([4]; 10 uM): 0.9218
Burkin Assay in Myoblasts, signal relative to DMSO ([4]; 20 uM): 1.111
Burkin Assay in Myoblasts, signal relative to DMSO ([4]; 40 uM): 1.0836

O=Nc1c(-c2c(O)[nH]c3ccccc23)[nH]c2ccccc12 [NCGC00015545-07]
CMV-LACZ in Myotubes, value relative to DMSO ([1]; 0.5 uM): 1.0736
CMV-LACZ in Myotubes, value relative to DMSO ([1]; 1 uM): 1.1036
CMV-LACZ in Myotubes, value relative to DMSO ([1]; 5 uM): 0.9434
CMV-LACZ in Myotubes, value relative to DMSO ([1]; 10 uM): 0.8393
CMV-LACZ in Myotubes, value relative to DMSO ([1]; 20 uM): 0.7010
CMV-LACZ in Myotubes, value relative to DMSO ([1]; 40 uM): 0.5470
Burkin Assay in Myotubes, value relative to DMSO ([2]; 0.5 uM): 1.126
Burkin Assay in Myotubes, value relative to DMSO ([2]; 1 uM): 1.08
Burkin Assay in Myotubes, value relative to DMSO ([2]; 5 uM): 0.8721
Burkin Assay in Myotubes, value relative to DMSO ([2]; 10 uM): 0.7457
Burkin Assay in Myotubes, value relative to DMSO ([2]; 20 uM): 0.6654
Burkin Assay in Myotubes, value relative to DMSO ([2]; 40 uM): 0.4975
CMV-LACZ in Myoblasts, value relative to DMSO ([3]; 0.5 uM): 1.2967
CMV-LACZ in Myoblasts, value relative to DMSO ([3]; 1 uM): 1.1950
CMV-LACZ in Myoblasts, value relative to DMSO ([3]; 5 uM): 0.7896
CMV-LACZ in Myoblasts, value relative to DMSO ([3]; 10 uM): 0.8603
CMV-LACZ in Myoblasts, value relative to DMSO ([3]; 20 uM): 0.5257
CMV-LACZ in Myoblasts, value relative to DMSO ([3]; 40 uM): 0.3383
Burkin Assay in Myoblasts, value relative to DMSO ([4]; 0.5 uM): 1.073
Burkin Assay in Myoblasts, value relative to DMSO ([4]; 1 uM): 1.12
Burkin Assay in Myoblasts, value relative to DMSO ([4]; 5 uM): 0.8463
Burkin Assay in Myoblasts, value relative to DMSO ([4]; 10 uM): 0.568
Burkin Assay in Myoblasts, value relative to DMSO ([4]; 20 uM): 0.3068
Burkin Assay in Myoblasts, value relative to DMSO ([4]; 40 uM): 0.242

COc1cc(/C=C/CN2CCN(Cc3ccc(C)o3)C(CCO)C2)ccc1O (stereo not drawn) [MLS000693704-01]
CMV-LACZ in Myotubes, signal relative to DMSO ([1]; 0.5 uM): 0.8571
CMV-LACZ in Myotubes, signal relative to DMSO ([1]; 1 uM): 0.8695
CMV-LACZ in Myotubes, signal relative to DMSO ([1]; 5 uM): 1.1170
CMV-LACZ in Myotubes, signal relative to DMSO ([1]; 10 uM): 1.0812
CMV-LACZ in Myotubes, signal relative to DMSO ([1]; 20 uM): 1.1647
CMV-LACZ in Myotubes, signal relative to DMSO ([1]; 40 uM): 1.0600
Burkin Assay in Myotubes, α7 integrin LacZ reporter signal relative to DMSO ([2]; 0.5 uM): 0.9315
Burkin Assay in Myotubes, α7 integrin LacZ reporter signal relative to DMSO ([2]; 1 uM): 1.0787
Burkin Assay in Myotubes, α7 integrin LacZ reporter signal relative to DMSO ([2]; 5 uM): 1.003
Burkin Assay in Myotubes, α7 integrin LacZ reporter signal relative to DMSO ([2]; 10 uM): 0.923
Burkin Assay in Myotubes, α7 integrin LacZ reporter signal relative to DMSO ([2]; 20 uM): 0.9587
Burkin Assay in Myotubes, α7 integrin LacZ reporter signal relative to DMSO ([2]; 40 uM): 0.8263
CMV-LACZ in Myoblasts (β-galactosidase activity relative to DMSO) ([3]; 0.5 uM): 0.8989
CMV-LACZ in Myoblasts (β-galactosidase activity relative to DMSO) ([3]; 1 uM): 1.1157
CMV-LACZ in Myoblasts (β-galactosidase activity relative to DMSO) ([3]; 5 uM): 0.9522
CMV-LACZ in Myoblasts (β-galactosidase activity relative to DMSO) ([3]; 10 uM): 0.9977
CMV-LACZ in Myoblasts (β-galactosidase activity relative to DMSO) ([3]; 20 uM): 0.7996
CMV-LACZ in Myoblasts (β-galactosidase activity relative to DMSO) ([3]; 40 uM): 1.0567
Burkin Assay in Myoblasts, signal relative to DMSO ([4]; 0.5 uM): 1.428
Burkin Assay in Myoblasts, signal relative to DMSO ([4]; 1 uM): 1.153
Burkin Assay in Myoblasts, signal relative to DMSO ([4]; 5 uM): 1.1427
Burkin Assay in Myoblasts, signal relative to DMSO ([4]; 10 uM): 0.9418
Burkin Assay in Myoblasts, signal relative to DMSO ([4]; 20 uM): 0.8473
Burkin Assay in Myoblasts, signal relative to DMSO ([4]; 40 uM): 0.8019
